Results on two compounds are retold here after publication PMC6797481, “Identification of an allosteric binding site on the human glycine transporter, GlyT2, for bioactive lipid analgesics” (eLife, 2019).

Positions count from the first letter of the chain named.

One experiment addresses T1, GlyT2 V432A mutant (Homo sapiens, UniProt Q9Y345, V432A).
T1 construct: expressed in transfected cells; host or cells: Xenopus laevis oocytes (cRNA injection)
T1 sequence (Q9Y345 1-797 V432A): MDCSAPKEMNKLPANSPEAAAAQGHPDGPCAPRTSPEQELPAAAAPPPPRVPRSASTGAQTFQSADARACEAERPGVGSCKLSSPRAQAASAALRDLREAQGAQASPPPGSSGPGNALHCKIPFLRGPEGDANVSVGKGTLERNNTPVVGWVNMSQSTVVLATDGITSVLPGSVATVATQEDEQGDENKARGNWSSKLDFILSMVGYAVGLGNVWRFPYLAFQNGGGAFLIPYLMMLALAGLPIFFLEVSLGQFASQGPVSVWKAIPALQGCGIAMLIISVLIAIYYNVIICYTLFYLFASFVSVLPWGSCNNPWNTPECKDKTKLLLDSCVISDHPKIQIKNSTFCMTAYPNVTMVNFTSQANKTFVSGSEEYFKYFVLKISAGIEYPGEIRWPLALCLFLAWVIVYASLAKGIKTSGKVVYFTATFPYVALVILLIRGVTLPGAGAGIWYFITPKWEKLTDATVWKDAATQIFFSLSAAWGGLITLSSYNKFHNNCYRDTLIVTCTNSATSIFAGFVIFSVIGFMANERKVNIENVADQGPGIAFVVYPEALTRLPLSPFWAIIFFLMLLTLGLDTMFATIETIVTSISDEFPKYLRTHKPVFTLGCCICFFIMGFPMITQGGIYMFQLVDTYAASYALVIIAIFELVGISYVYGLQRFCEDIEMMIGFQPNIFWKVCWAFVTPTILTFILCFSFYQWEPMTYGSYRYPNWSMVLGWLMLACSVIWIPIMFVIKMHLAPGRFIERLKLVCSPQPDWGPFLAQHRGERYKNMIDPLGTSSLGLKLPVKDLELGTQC
As to the kind of experiment: Glycine transport currents, two electrode voltage clamp, oocytes expressing GlyT2 V432A. The experiment is classed as cell-based. The conditions noted are these: GlyT2 V432A; for IC50: greater than maximum concentration applied (footnote a). As to the method:
(§1) Glycine was first applied to establish maximal transport current.
(§2) Compounds were tested for inhibition of glycine transport on Xenopus laevis oocytes expressing mutant GlyT1 and GlyT2 transporters. n values are in brackets, with measurements taken from at least 2 batches of oocytes.
For orientation: Two-electrode voltage clamp is typically applied to oocytes expressing channels or transporters.

The target in a further experiment is T2, GlyT2 WT (Homo sapiens, UniProt Q9Y345).
T2 sequence (Q9Y345 1-797): T1 sequence (Q9Y345 1-797 V432A) with A432V
Details: expressed in transfected cells; host or cells: Xenopus laevis oocytes (cRNA injection). The conditions noted are these: WT GlyT2, previously published, cited from earlier work; for IC50: mean (95% CI); for GlyT2 % max. inhibition: mean ± SEM.

The next experiment concerns GlyT1 WT. Details: method as in earlier work. The conditions noted are these: previously published; cited from earlier work.
A further experiment has as its target T3, GlyT2 F428A mutant (Homo sapiens, UniProt Q9Y345, F428A).
T3 construct: expressed in transfected cells; host or cells: Xenopus laevis oocytes (cRNA injection)
T3 sequence (Q9Y345 1-797 F428A): T1 sequence (Q9Y345 1-797 V432A) with F428A, A432V
Briefly: Glycine transport currents, two electrode voltage clamp, oocytes expressing GlyT2 F428A. The conditions noted are these: GlyT2 F428A; mean ± SEM. In kind it is cell-based. As to the method: as §1, §2

What is called IC50 is the concentration that inhibits the measured activity by half. Turning to `CCC=CCCCCCCCCCCCC(=O)NCC(=O)O` [C16 ω3 Glycine], the values for the IC50 against GlyT2 V432A mutant, at GlyT2 WT and in the experiment with GlyT1 WT were greater than 10 µM, 0.81 µM and greater than 10 µM, respectively. Besides, the “% Max. inhibition” value on GlyT2 V432A mutant (mean ± SEM) is given as 1.0 ± 3.0 (p=0.0193) %. For the same compound, the “GlyT2 % max. inhibition” value on GlyT2 WT is 65.3 ± 1.9%.
Turning to `CCCCCC/C=C\CCCCCCCC(=O)NCC(=O)O` [C16 ω7 Glycine], the “% Max. inhibition (% inhibition at the highest concentration of inhibitor used)” value at GlyT2 V432A mutant (footnote b) is recorded as 44.2 ± 6.3^b (p=0.0009) %. Moreover, the IC50 against GlyT2 V432A mutant was greater than 10 µM; at GlyT2 WT, 1.5 µM; with GlyT1 WT it was greater than 10 µM. The “GlyT2 % max. inhibition” value on GlyT2 WT is 92.5 ± 1.6%. Also, on GlyT2 F428A mutant, the “% Max. inhibition” value is reported as 56.5%.
